The record followed here is US20210094954A1, “PREPARATION METHODS AND APPLICATIONS OF 3,5-DISUBSTITUTED METHYLPYRAZOLO[1,5-A]PYRIMIDINE-7-HYDROXYLIC SALTS” (priority 2019, published 2021).

Read-outs that look alike come from different tables or passages of the source. A value given as a limit tells only on which side of the number the result lay.

Type in all cases: cell-based
The subject of one assay is Diphtheria bacilli. Put plainly: organism not typed. The note with it: 37° C., 24 hours; read-out: MIC values of in vitro antibacterial test results.
Assay [1] concerns Staphylococcus aureus 43300(MRSA). Put plainly: microbe, parasite or virus in culture. As to conditions: Staphylococcus aureus, MRSA, 24 h, read-out: MIC values of in vitro antibacterial test results.
A further assay relates to Bacillus cereus 2. Put plainly: microbe, parasite or virus in culture. As to conditions: Bacillus cereus, 2; 37° C., 24 hours; read-out: MIC values of in vitro antibacterial test results.
Assay [2] concerns Streptococcus agalactia B group. Put plainly: microbe, parasite or virus in culture. As to conditions: Streptococcus; 37° C., 24 hours; read-out: MIC values of in vitro antibacterial test results.
The next assay concerns Oral Candida. Put plainly: microbe, parasite or virus in culture. As to conditions: Candida.
For a further assay, the system named is Peel fungus. Put plainly: organism not typed. The note with it: 37° C., 24 hours; read-out: MIC values of in vitro antibacterial test results.
In assay [3] the test system is Streptococcus pneumoniae 6303 (PRSP). Put plainly: microbe, parasite or virus in culture. The note with it: Streptococcus pneumoniae, PRSP, 24 h, read-out: MIC values of in vitro antibacterial test results.
For assay [4], the system named is Staphylococcus aureus 29231. Put plainly: microbe, parasite or virus in culture. As to conditions: Staphylococcus aureus, 29231; 37° C., 24 hours; read-out: MIC values of in vitro antibacterial test results.
Assay [5] relates to Staphylococcus aureus 703(MRSA). Put plainly: microbe, parasite or virus in culture. As to conditions: Staphylococcus aureus, MRSA, 24 h, read-out: MIC values of in vitro antibacterial test results.
Assay [6] relates to Streptococcus pneumoniae M2. Put plainly: microbe, parasite or virus in culture. The note with it: Streptococcus pneumoniae, M2; 37° C., 24 hours; read-out: MIC values of in vitro antibacterial test results.
Assay [7] relates to Enterococcus faecalis F2518(VRE). Put plainly: microbe, parasite or virus in culture. As to conditions: Enterococcus faecalis, VRE, 24 h, read-out: MIC values of in vitro antibacterial test results.
Assay [8] has as its system Enterococcus faecalis 29212. Put plainly: microbe, parasite or virus in culture. The note with it: Enterococcus faecalis, 29212; 37° C., 24 hours; read-out: MIC values of in vitro antibacterial test results.
In assay [9] the test system is Streptococcus pneumoniae 10351. Put plainly: microbe, parasite or virus in culture. As to conditions: Streptococcus pneumoniae, 10351; 37° C., 24 hours; read-out: MIC values of in vitro antibacterial test results.
Assay [10] relates to Bacillus anthracis Bacillus 1. Put plainly: microbe, parasite or virus in culture. As to conditions: Bacillus anthracis, 24 h, read-out: MIC values of in vitro antibacterial test results.
Assay [11] deals with F2518(VRE), Staphylococcus aureus resistant strain 43300(MRSA), 703 (MRSA), pneumococcal resistance bacteria 6303(PRSP). Put plainly: microbe, parasite or virus in culture. As to conditions: read-out: MIC values (μM).
The test system of a further assay is Bacillus subtilis 168. Put plainly: microbe, parasite or virus in culture. The note with it: Bacillus subtilis, 168; 37° C., 24 hours; read-out: MIC values of in vitro antibacterial test results.
In the next assay the test system is Clostridium perfringens. Put plainly: microbe, parasite or virus in culture. The note with it: Clostridium perfringens, 24 h, read-out: MIC values of in vitro antibacterial test results.
Where [12] appears, read: 37° C., 24 hours, read-out: MIC values of in vitro antibacterial test results.

For the compound `Cc1nn2c([O-])cc(-c3ccc([O-])nc3)nc2c1-c1ccc(F)cc1F.[Na+].[Na+]` [Compound 19, Disodium 3-(2,4-difluorophenyl)-2-methyl-5-(6-hydroxypyridin-3-yl)pyrazolo[1,5-α]pyrimidin-7-olate], the MIC with Diphtheria bacilli is greater than 150 mg/L; in assay [1], less than 100 mg/L; in the assay with Bacillus cereus 2, less than 100 mg/L; in [2], greater than 150 mg/L; with Oral Candida (setting [12]), greater than 150 mg/L; with Peel fungus, less than 150 mg/L. Moreover, the MIC is greater than 150 mg/L in assay [3]; greater than 150 mg/L in assay [4]; less than 150 mg/L in assay [5]; less than 100 mg/L in assay [6]; less than 150 mg/L in [7]; less than 150 mg/L in assay [8]. The MIC is greater than 150 mg/L in [9]; greater than 150 mg/L in [10]; less than 100 mg/L in assay [11]; greater than 150 mg/L with Bacillus subtilis 168; greater than 150 mg/L in the assay on Clostridium perfringens.
`Cc1nn2c([O-])cc(-c3ccc(C(=O)[O-])nc3)nc2c1-c1ccc(F)cc1F.[Na+].[Na+]` [Compound 21, Disodium 5-(3-(2,4-difluorophenyl)-2-methyl-7-hydroxypyrazolo[1,5-α]pyrimidin-5-yl)picolinate]: the MIC is greater than 150 mg/L in the assay with Diphtheria bacilli; less than 100 mg/L in assay [1]; less than 150 mg/L in the assay with Bacillus cereus 2; greater than 150 mg/L in assay [2]; less than 100 mg/L in the assay with Oral Candida (read-out: MIC values (μM)); less than 100 mg/L with Oral Candida (setting [12]). Also, the MIC in the assay with Peel fungus was less than 150 mg/L; in assay [3] it was greater than 150 mg/L; in assay [4], greater than 150 mg/L; in [5], less than 150 mg/L; in [6], less than 100 mg/L; in [7], less than 150 mg/L. Also, the MIC in assay [8] was less than 150 mg/L; in [9] it was greater than 150 mg/L; in [10], greater than 150 mg/L; in assay [11] it was less than 100 mg/L; in the assay with Bacillus subtilis 168, greater than 150 mg/L; with Clostridium perfringens it was greater than 150 mg/L.
In the case of `Cc1nn2c([O-])cc(-c3ccc(C(F)(F)F)nc3)nc2c1-c1ccc(F)cc1F.[K+]` [Compound 26, Potassium 3-(2,4-difluorophenyl)-2-methyl-5-(6-(trifluoromethyl)pyridin-3-yl)pyrazolo[1,5-α]pyrimidin-7-olate], the MIC in the assay with Diphtheria bacilli is greater than 150 mg/L; in assay [1], less than 100 mg/L; with Bacillus cereus 2, less than 100 mg/L; in [2] it was less than 150 mg/L; in the assay with Oral Candida (read-out: MIC values (μM)), less than 100 mg/L; with Oral Candida (setting [12]) it was less than 100 mg/L. In addition, the MIC with Peel fungus is less than 150 mg/L; in assay [3] it was less than 150 mg/L; in assay [4], less than 100 mg/L; in [5] it was less than 100 mg/L; in assay [6], less than 150 mg/L; in assay [7], less than 150 mg/L. In addition, the MIC in [8] was less than 100 mg/L; in [9] it was less than 150 mg/L; in assay [10], greater than 150 mg/L; in assay [11], less than 100 mg/L; in the assay on Bacillus subtilis 168, less than 100 mg/L; with Clostridium perfringens, greater than 150 mg/L.
For the compound `Cc1nn2c([O-])cc(-c3ccc(C#N)cc3)nc2c1-c1ccc(F)cc1F.[K+]` [Compound 20, Potassium 5-(4-cyanophenyl)-3-(2,4-difluorophenyl)-2-methylpyrazolo[1,5-α]pyrimidin-7-olate], the MIC with Diphtheria bacilli is less than 150 mg/L; in assay [1], less than 150 mg/L; in the assay with Bacillus cereus 2 it was less than 100 mg/L; in assay [2], greater than 150 mg/L; in the assay on Oral Candida (setting [12]), less than 150 mg/L; in the assay with Peel fungus it was greater than 150 mg/L. Further, the MIC is less than 150 mg/L in assay [3]; less than 100 mg/L in assay [4]; less than 100 mg/L in assay [5]; less than 100 mg/L in assay [6]; less than 150 mg/L in assay [7]; less than 100 mg/L in assay [8]. Also, the MIC is less than 100 mg/L in assay [9]; greater than 150 mg/L in [10]; less than 100 mg/L in assay [11]; less than 100 mg/L in the assay on Bacillus subtilis 168; less than 150 mg/L with Clostridium perfringens.
On to `Cc1nn2c([O-])cc(-c3ccc(S(N)(=O)=O)nc3)nc2c1-c1ccc(F)cc1F.[Na+]` [Compound 29, Sodium 3-(2,4-difluorophenyl)-2-methyl-5-(6-sulfamoylpyridin-3-yl)pyrazolo[1,5-α]pyrimidin-7-olate], for which the MIC in the assay on Diphtheria bacilli was greater than 150 mg/L; in assay [1], less than 100 mg/L; with Bacillus cereus 2, less than 150 mg/L; in assay [2], greater than 150 mg/L; in the assay on Oral Candida (read-out: MIC values (μM)), less than 100 mg/L; in the assay on Oral Candida (setting [12]), less than 100 mg/L. Besides, the MIC in the assay with Peel fungus was less than 150 mg/L; in [3], greater than 150 mg/L; in assay [4], greater than 150 mg/L; in assay [5] it was less than 150 mg/L; in assay [6], less than 100 mg/L; in [7], less than 150 mg/L. The MIC in assay [8] was less than 150 mg/L; in [9] it was greater than 150 mg/L; in assay [10], greater than 150 mg/L; in [11], less than 100 mg/L; with Bacillus subtilis 168, greater than 150 mg/L; in the assay on Clostridium perfringens, greater than 150 mg/L.
With `Cc1nn2c([O-])cc(-c3ccc([N+](=O)[O-])cc3)nc2c1-c1ccc(F)cc1F.[K+]` [Compound 23, Potassium 3-(2,4-difluorophenyl)-2-methyl-5-(4-nitrophenyl)pyrazolo[1,5-α]pyrimidin-7-olate], the MIC in the assay on Diphtheria bacilli is greater than 150 mg/L; in [1] it was less than 100 mg/L; in the assay with Bacillus cereus 2, less than 100 mg/L; in assay [2], greater than 150 mg/L; in the assay with Oral Candida (read-out: MIC values (μM)) it was less than 100 mg/L; in the assay on Oral Candida (setting [12]), less than 100 mg/L. In addition, the MIC is less than 150 mg/L in the assay with Peel fungus; greater than 150 mg/L in assay [3]; greater than 150 mg/L in assay [4]; less than 150 mg/L in assay [5]; less than 100 mg/L in [6]; less than 150 mg/L in [7]. Besides, the MIC in assay [8] is less than 150 mg/L; in assay [9] it was greater than 150 mg/L; in assay [10], greater than 150 mg/L; in assay [11] it was less than 100 mg/L; with Bacillus subtilis 168 it was greater than 150 mg/L; in the assay on Clostridium perfringens, greater than 150 mg/L.
In the case of `Cc1nn2c([O-])cc(-c3ccc(C(=O)[O-])cc3)nc2c1-c1ccc(F)cc1F.[Na+].[Na+]` [Compound 7, Disodium 4-(3-(2,4-difluorophenyl)-2-methyl-7-hydroxy-pyrazolo[1,5-α]pyrimidin-5-yl)benzoate], the MIC is greater than 150 mg/L in the assay on Diphtheria bacilli; less than 100 mg/L in [1]; less than 150 mg/L in the assay with Bacillus cereus 2; greater than 150 mg/L in assay [2]; greater than 150 mg/L in the assay on Oral Candida (setting [12]); less than 150 mg/L in the assay with Peel fungus. Besides, the MIC is greater than 150 mg/L in assay [3]; greater than 150 mg/L in [4]; less than 150 mg/L in [5]; less than 100 mg/L in assay [6]; less than 150 mg/L in [7]; less than 150 mg/L in assay [8]. For the same compound, the MIC is greater than 150 mg/L in [9]; greater than 150 mg/L in assay [10]; less than 100 mg/L in assay [11]; greater than 150 mg/L in the assay with Bacillus subtilis 168; greater than 150 mg/L with Clostridium perfringens.
With `Cc1nn2c([O-])cc(-c3ccc(C(=O)NCCN(C)C)cc3)nc2c1-c1ccc(F)cc1F.[Na+]` [Compound 31, Sodium 3-(2,4-difluorophenyl)-5-(4-((2-(dimethylamino)ethyl)carbamoyl)phenyl)-2-methylpyrazolo[1,5-α]pyrimidin-7-olate], the MIC is greater than 150 mg/L with Diphtheria bacilli; less than 150 mg/L in assay [1]; less than 100 mg/L in the assay with Bacillus cereus 2; greater than 150 mg/L in assay [2]; less than 100 mg/L in the assay on Oral Candida (read-out: MIC values (μM)); less than 100 mg/L in the assay on Oral Candida (setting [12]). Moreover, the MIC with Peel fungus is greater than 150 mg/L; in assay [3] it was less than 100 mg/L; in assay [4], less than 100 mg/L; in assay [5], less than 100 mg/L; in assay [6] it was less than 100 mg/L; in assay [7], less than 150 mg/L. The MIC in assay [8] is less than 100 mg/L; in assay [9], less than 100 mg/L; in assay [10], greater than 150 mg/L; in [11], less than 100 mg/L; in the assay with Bacillus subtilis 168, less than 100 mg/L; in the assay on Clostridium perfringens, greater than 150 mg/L.
